From US8367659B2, “Oxazinyl isoflavonoid compounds, medicaments and use” (Marshall Edwards, Inc., priority 2007, dated 2013) come the findings set out here.

One may read the EC50 as the midpoint of the concentration-response curve.

For assay [1], the system named is TNFα synthesis in RAW 264.7 murine macrophages. The assay is described as follows: LPS-induced TNFα synthesis in RAW 264.7 murine macrophages. The assay is classed as cell-based, mouse. The settings on record: 10 μM; relative to vehicle alone; FIG. 5. The protocol:
The mouse macrophage cell line RAW 264.7 was cultured in DMEM supplemented with foetal calf serum (FCS), […] glutamine and 50 U/ml penicillin/streptomycin. Cells were treated with either test compound (in 0.025% DMSO) or vehicle alone, and added one hour before 50 ng/ml LPS. After incubation for 24 h, culture media was collected for PGE2 or TXB2 measurement by ELISA (Cayman Chemical), and TNFα measurement using an ELISA (Becton Dickinson). Test compounds were examined a concentration of 10 μM. […] Consequently, to assess the effect of test compounds on various analytes, cell viability was taken into consideration with the use of the formula: Actual effect of test compound=measured effect−(effect on cell viability×measured effect)

For assay [2], the system named is Rabbit kidney (RK-13) cells. The assay is described as follows: Toxicity to normal cells, rabbit kidney (RK-13) cells. It is filed as cell-based. The settings on record: Oryctolagus cuniculus, normal, non-transformed cells, read-out: IC50 μM, RK Rabbit Kidney. The protocol:
(§1) IC50 values were determined for each cell line. Cells were seeded in 96-well plates at an appropriate cell density as determined from growth kinetics analysis and cultured for 5 days in the absence and presence of the test compounds. Cell proliferation was assessed after the addition of 20 μl of 3-4,5 dimethylthiazol-2,5-diphenyl tetrazolium bromide (MTT, 2.5 mg/ml in PBS, Sigma) for 3-4 hrs at 37° C. according to manufacturer's instructions. IC50 values were calculated from semi-log plots of % of control proliferation on the y-axis against log dose on the x-axis.
(§2) The neonatal foreskin fibroblasts (NFF) were a gift from Dr. Peter Parsons (Queensland Institute of Medical Research). Rabbit kidney (RK-13) cells were obtained from Miller Whalley (Macquarie University). Both cell lines were cultured in RPMI supplemented with 10% FCS(CSL, Australia), penicillin (100 U/ml), streptomycin ([…]), L-glutamine (2 mM) and sodium bicarbonate (1.2 g/L), and cultured at 37° C. in a humidified atmosphere of 5% CO2. IC50 values were determined as described above.

Assay [3] has as its system neonatal foreskin fibroblasts (NFF). Description: Toxicity to normal cells, neonatal foreskin fibroblasts. Particulars: Fibroblast; normal, non-transformed cells; read-out: IC50 μM, NFF Fibroblast. The assay is classed as cell-based. The protocol:
as §1, §2

Assay [4] has as its system human umbilical vein smooth muscle cells (HUVSMC). Description: Proliferation of human umbilical vein smooth muscle cells (MTT). It is filed as cell-based. Particulars: 10 μM; 10% FCS, 5 days; FIG. 8. As to the method:
The effect of test compounds on human umbilical vein smooth muscle cells (HUVSMC) was examined. Cells were seeded into 96 well plates at a low seeding rate of 1.6×10^3 cells per well, and allowed to attach for 24 hours. The cells were then washed twice with medium without FCS and incubated in medium without FCS for 20 hours to serum starve them. Analogue was prepared in medium without FCS at 20 μM and added to the plates and incubated for one hour. Final analogue concentration was therefore 10 μM. The cells were then stimulated by adding medium +20% FCS, to give a final FCS concentration of 10%. The cells were incubated until the control cells i.e. those with FCS and no compound, were just confluent (5 days). An MTT assay was performed, and difference in absorbance in analogue treated cells from the control was calculated using the formula: test/control*100−100. Results
The effect of test compounds on human umbilical vein smooth muscle cells (HUVSMC), was examined. Cells, tissue explants from a neonate (HRI—passage 2), were seeded into 96 well plates at 1×10^3 cells per well, and allowed to attach for 24 hours. They were then washed twice and incubated in medium without foetal calf serum (FCS) for 24-48 hours to serum-starve them. Test compounds were prepared in medium without FCS and added to the plates and incubated for one hour. Medium with FCS was added to give a final concentration of 10% and the plates incubated for 4-5 days until the controls were just confluent.

Assay [5] concerns HPAC. Description: Anti-cancer activity, HPAC pancreatic cancer cells (MTT). Particulars: Homo sapiens, 120 h, 5 days. The assay is classed as cell-based.
Assay [6] relates to cancer cell lines. Description: Anti-cancer activity, cancer cell lines tested as a group (MTT). It is filed as cell-based.
Assay [7] relates to MM200. The assay is described as follows: Anti-cancer activity, MM200 melanoma cells (MTT). The assay is classed as cell-based. Particulars: 120 h; 5 days, MTT.
Assay [8] relates to CP70. Description: Anti-cancer activity, CP70 ovarian cancer cells (MTT). It is filed as cell-based. The settings on record: 120 h, 5 days.
Assay [9] can be described thus: Free radical scavenging with DPPH. Particulars: DPPH, 20 minutes, absorbance 517 nm; Table 4; read-out: Free radical scavenging ability EC50. Put shortly:
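Compounds reacted with DPPH in ethanol for 20 min, screened at 100 μM, and absorbance at 517 nm compared with a DPPH-ethanol blank. IC50 was taken as the concentration giving a 0.6 absorbance change, with 1.2 units representing total scavenging.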
(In general: Loss of DPPH colour is used to gauge radical scavenging.)

Assay [10] concerns HT29. Description: Anti-cancer activity, HT-29 colon adenocarcinoma cells (MTT). The assay is classed as cell-based. Particulars: Homo sapiens, HT-29, 120 h, 5 days, read-out: IC50 μM, HT29 Colorectal.
Assay [11] relates to NCI-H460. The assay is described as follows: Anti-cancer activity, NCI-H460 large cell lung cancer cells (MTT). The assay is classed as cell-based. Particulars: Homo sapiens, NCI-H460, 120 h, 5 days, read-out: IC50 μM, NCI-H460 Lung (NSCLC).
Assay [12] has as its target T1, GAL4-PPARγ fusion protein (Homo sapiens, UniProt P37231).
T1 construct: host or cells: HEK293 (human embryonic kidney), stably transfected
The assay is described as follows: PPARγ activity in transfected HEK293 cells (beta-lactamase reporter). The assay is classed as cell-based. Particulars: FIG. 13: 1 μM. The procedure, abridged:
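HEK293 cells stably expressing GAL4-DBD/PPARγ-LBD fusion with beta-lactamase reporter, treated with compound at 1, 5 and 10 μM for 16-18 h. Beta-lactamase read via FRET substrate (2 h, room temperature), ex 409 nm, em 460/530 nm; background-subtracted emission ratio.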

The subject of assay [13] is MDA-MB-468. The assay is described as follows: Anti-cancer activity, MDA-MB-468 breast cancer cells (MTT). It is filed as cell-based. The settings on record: Homo sapiens, MDA-MB-468, 120 h, 5 days.

T1 sequence (P37231 238-503 limits assumed): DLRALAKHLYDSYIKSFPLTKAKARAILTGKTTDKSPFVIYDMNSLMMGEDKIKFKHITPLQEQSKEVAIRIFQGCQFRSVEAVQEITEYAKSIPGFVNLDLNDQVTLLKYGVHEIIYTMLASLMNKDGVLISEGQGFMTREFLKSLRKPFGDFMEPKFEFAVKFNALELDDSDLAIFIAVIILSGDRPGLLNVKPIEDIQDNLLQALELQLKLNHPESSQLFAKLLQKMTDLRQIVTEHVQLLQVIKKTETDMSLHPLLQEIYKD
T1 sequence (P04386 1-147 partner limits assumed): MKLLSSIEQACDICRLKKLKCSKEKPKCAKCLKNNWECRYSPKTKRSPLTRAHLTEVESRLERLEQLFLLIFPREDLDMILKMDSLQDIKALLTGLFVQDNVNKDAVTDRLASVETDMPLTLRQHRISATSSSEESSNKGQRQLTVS

As to `COCCCN1COc2cc3c(cc2C1)C=C(c1cccc(O)c1)CO3` [Compound 17, 3-(3-(3-Methoxypropyl)-2,3,4,8-tetrahydrochromeno[6,7-e][1,3]oxazin-7-yl)phenol], the “mean change of LPS-induced TNFα synthesis” value in [1] is “greatest inhibition”. In addition, the IC50 in assay [2] is 5.5 µM; in assay [3], 55.9 µM; in assay [5] it was 5.3 µM; in [6] (read-out: most potent activity against the respective cell lines tested), 1 to 5 µM; in [7], 2.3 µM; in assay [8] it was 4.5 µM. Further, the “effect on proliferation of HUVSMCs induced by FCS” value in assay [4] was “significantly inhibited the proliferation”. Moreover, the “activity against CP70, HPAC and MM200 cell lines” value in assay [6] (CP70, HPAC and MM200) is recorded as “active”. Moreover, in assay [9], the EC50 was determined as 40 µM.

Turning to `CCCN1COc2cc3c(cc2C1)C=C(c1ccc(O)cc1)C(CC)O3` (centres unmarked) [Compound 27, 4-(8-Ethyl-3-propyl-2,3,4,8-tetrahydrochromeno[6,7-e][1,3]oxazin-7-yl)phenol], the IC50 in assay [10] was determined as 50.8 ± 1 µM; in [2] it was 14.5 ± 1 µM; in assay [3], 40.3 ± 1.2 µM; in [5] it was 12.4 ± 4 µM; in assay [11], 17.8 ± 1.1 µM; in assay [7], 23.2 ± 1.1 µM. The IC50 in [8] was found to be 10.9 ± 1.5 µM; in [13], 14.9 ± 1 µM. Also, the “PPARγ activation, increase in beta-lactamase activity over media only control” value in assay [12] is on record as “PPARγ agonist activity”. Also, the EC50 in assay [9] worked out at 26 µM.
